According to paper PMC10486429, “Investigations Using Albumin Binders to Modify the Tissue Distribution Profile of Radiopharmaceuticals Exemplified with Folate Radioconjugates” (Cancers, 2023):
Values belong to the compound of their own block, whether it stands above or below them.

Tested on: KB tumor-bearing athymic nude mice
Test: Biodistribution of 177Lu-RedFols in KB tumor-bearing mice
Assay type: in vivo, mouse
Description: Athymic nude mice (Crl:CD1-Foxn^nu) were kept on a folate-deficient rodent diet (ssniff Spezialdiäten GmbH, Soest, Germany) for at least one week prior to inoculation with the tumor cells. Biodistribution studies were performed approx. two weeks after subcutaneous inoculation with KB tumor cells (5 × 10^6 in 100 μL PBS) (Supplementary Materials Section S12). […] Data were presented as the average ± SD of n = 3−4 mice.
Purpose: Biodistribution studies were performed in KB tumor-bearing athymic nude mice (Crl:CD1-Foxnnu) in order to investigate the tissue distribution profiles of the novel radioconjugates. The aim was to compare the impact of the two different albumin binders (4-(p-iodophenyl)butanoate unit vs. 5-(p-iodophenyl)pentanoate unit), and that of the in-corporation of an AMBA linker adjacent to the albumin binder on the distribution profile of the resulting folate radioconjugates.
Methods: The methods are described in the main article. The mice were sacrificed at […]

Blood, accumulated activity (1 h p.i.): 9.0 ± 1.2 % IA/g
Bone, accumulated activity (1 h p.i.): 1.2 ± 0.1 % IA/g
Intestines, accumulated activity (1 h p.i.): 1.2 ± 0.3 % IA/g
KB tumor, accumulated activity (1 h p.i.): 17 ± 2 % IA/g
Kidneys, accumulated activity (1 h p.i.): 36 ± 4 % IA/g
Liver, accumulated activity (1 h p.i.): 2.6 ± 0.7 % IA/g
Lung, accumulated activity (1 h p.i.): 4.6 ± 0.3 % IA/g
Muscle, accumulated activity (1 h p.i.): 1.4 ± 0.1 % IA/g
Salivary glands, accumulated activity (1 h p.i.): 6.4 ± 0.1 % IA/g
Spleen, accumulated activity (1 h p.i.): 1.3 ± 0.2 % IA/g
Stomach, accumulated activity (1 h p.i.): 1.5 ± 0.1 % IA/g
Tumor-to-blood ratio (1 h p.i.): 2.0 ± 0.4
Tumor-to-kidney ratio (1 h p.i.): 0.48 ± 0.02
Tumor-to-liver ratio (1 h p.i.): 6.9 ± 1.6
Blood, accumulated activity (4 h p.i.): 3.2 ± 1.8 % IA/g
Bone, accumulated activity (4 h p.i.): 0.87 ± 0.21 % IA/g
Intestines, accumulated activity (4 h p.i.): 0.83 ± 0.37 % IA/g
KB tumor, accumulated activity (4 h p.i.): 34 ± 6 % IA/g
Kidneys, accumulated activity (4 h p.i.): 57 ± 5 % IA/g
Liver, accumulated activity (4 h p.i.): 1.9 ± 0.4 % IA/g
Lung, accumulated activity (4 h p.i.): 2.4 ± 1.1 % IA/g
Muscle, accumulated activity (4 h p.i.): 1.3 ± 0.2 % IA/g
Salivary glands, accumulated activity (4 h p.i.): 8.7 ± 0.9 % IA/g
Spleen, accumulated activity (4 h p.i.): 0.83 ± 0.25 % IA/g
Stomach, accumulated activity (4 h p.i.): 1.4 ± 0.5 % IA/g
Tumor-to-blood ratio (4 h p.i.): 12 ± 5
Tumor-to-kidney ratio (4 h p.i.): 0.59 ± 0.04
Tumor-to-liver ratio (4 h p.i.): 18 ± 3
Blood, accumulated activity (24 h p.i.): 0.06 ± 0.01 % IA/g
Bone, accumulated activity (24 h p.i.): 0.49 ± 0.09 % IA/g
Intestines, accumulated activity (24 h p.i.): 0.28 ± 0.11 % IA/g
KB tumor, accumulated activity (24 h p.i.): 33 ± 2 % IA/g
Kidneys, accumulated activity (24 h p.i.): 62 ± 11 % IA/g
Liver, accumulated activity (24 h p.i.): 1.2 ± 0.2 % IA/g
Lung, accumulated activity (24 h p.i.): 0.60 ± 0.07 % IA/g
Muscle, accumulated activity (24 h p.i.): 0.75 ± 0.20 % IA/g
Salivary glands, accumulated activity (24 h p.i.): 4.5 ± 0.8 % IA/g
Spleen, accumulated activity (24 h p.i.): 0.51 ± 0.13 % IA/g
Stomach, accumulated activity (24 h p.i.): 0.54 ± 0.12 % IA/g
Tumor-to-blood ratio (24 h p.i.): 583 ± 105
Tumor-to-kidney ratio (24 h p.i.): 0.54 ± 0.07
Tumor-to-liver ratio (24 h p.i.): 28 ± 7
Structure (SMILES): CN1c2c(nc(N)[nH]c2=O)NC[C@H]1CNc1ccc(C(=O)N[C@@H](CCC(=O)N[C@@H](CCCCNC(=O)CN2CCN(CC(=O)O)CCN(CC(=O)O)CCN(CC(=O)O)CC2)C(=O)N[C@@H](CCCCNC(=O)CCCCc2ccc(I)cc2)C(=O)O)C(=O)O)cc1 [[^177Lu]Lu-6R-RedFol-24, metal not drawn]

Structure (SMILES): CN1c2c(nc(N)[nH]c2=O)NCC1CNc1ccc(C(=O)NC(CCC(=O)NC(CCCCNC(=O)CN2CCN(CC(=O)[O-])CCN(CC(=O)[O-])CCN(CC(=O)[O-])CC2)C(=O)NC(CCCCNC(=O)c2ccc(CNC(=O)CCCc3ccc(I)cc3)cc2)C(=O)O)C(=O)O)cc1.[177Lu+3] (stereo not drawn) [[^177Lu]Lu-6S-RedFol-3]
Blood, accumulated activity (1 h p.i.): 22 ± 1 % IA/g
Bone, accumulated activity (1 h p.i.): 1.9 ± 0.1 % IA/g
Intestines, accumulated activity (1 h p.i.): 2.3 ± 0.8 % IA/g
KB tumor, accumulated activity (1 h p.i.): 7.9 ± 1.2 % IA/g
Kidneys, accumulated activity (1 h p.i.): 12 ± 1 % IA/g
Liver, accumulated activity (1 h p.i.): 3.7 ± 0.2 % IA/g
Lung, accumulated activity (1 h p.i.): 9.3 ± 1.7 % IA/g
Muscle, accumulated activity (1 h p.i.): 1.4 ± 0.1 % IA/g
Salivary glands, accumulated activity (1 h p.i.): 4.1 ± 0.3 % IA/g
Spleen, accumulated activity (1 h p.i.): 2.4 ± 0.2 % IA/g
Stomach, accumulated activity (1 h p.i.): 1.8 ± 0.2 % IA/g
Tumor-to-blood ratio (1 h p.i.): 0.36 ± 0.06
Tumor-to-kidney ratio (1 h p.i.): 0.66 ± 0.09
Tumor-to-liver ratio (1 h p.i.): 2.1 ± 0.4
Blood, accumulated activity (4 h p.i.): 14 ± 1 % IA/g
Bone, accumulated activity (4 h p.i.): 1.8 ± 0.1 % IA/g
Intestines, accumulated activity (4 h p.i.): 1.7 ± 0.4 % IA/g
KB tumor, accumulated activity (4 h p.i.): 16 ± 1 % IA/g
Kidneys, accumulated activity (4 h p.i.): 11 ± 2 % IA/g
Liver, accumulated activity (4 h p.i.): 2.4 ± 0.2 % IA/g
Lung, accumulated activity (4 h p.i.): 7.7 ± 2.6 % IA/g
Muscle, accumulated activity (4 h p.i.): 1.2 ± 0.2 % IA/g
Salivary glands, accumulated activity (4 h p.i.): 2.8 ± 0.4 % IA/g
Spleen, accumulated activity (4 h p.i.): 1.7 ± 0.2 % IA/g
Stomach, accumulated activity (4 h p.i.): 1.3 ± 0.1 % IA/g
Tumor-to-blood ratio (4 h p.i.): 1.1 ± 0.1
Tumor-to-kidney ratio (4 h p.i.): 1.4 ± 0.2
Tumor-to-liver ratio (4 h p.i.): 6.5 ± 0.2
Blood, accumulated activity (24 h p.i.): 8.7 ± 1.1 % IA/g
Bone, accumulated activity (24 h p.i.): 1.2 ± 0.2 % IA/g
Intestines, accumulated activity (24 h p.i.): 1.0 ± 0.1 % IA/g
KB tumor, accumulated activity (24 h p.i.): 41 ± 2 % IA/g
Kidneys, accumulated activity (24 h p.i.): 30 ± 1 % IA/g
Liver, accumulated activity (24 h p.i.): 1.8 ± 0.4 % IA/g
Lung, accumulated activity (24 h p.i.): 4.8 ± 0.7 % IA/g
Muscle, accumulated activity (24 h p.i.): 1.0 ± 0.2 % IA/g
Salivary glands, accumulated activity (24 h p.i.): 2.3 ± 0.4 % IA/g
Spleen, accumulated activity (24 h p.i.): 2.3 ± 0.1 % IA/g
Stomach, accumulated activity (24 h p.i.): 1.1 ± 0.1 % IA/g
Tumor-to-blood ratio (24 h p.i.): 4.7 ± 0.3
Tumor-to-kidney ratio (24 h p.i.): 1.3 ± 0.1
Tumor-to-liver ratio (24 h p.i.): 24 ± 4
